These results are taken from patent US20090270398A1, “Compounds, Compositions and Methods Comprising Pyridazine Derivatives” (Institute for OneWorld Health, priority 2008, published 2009).

The structures appear in SMILES notation.

T1 sequence (P13569 whole entry): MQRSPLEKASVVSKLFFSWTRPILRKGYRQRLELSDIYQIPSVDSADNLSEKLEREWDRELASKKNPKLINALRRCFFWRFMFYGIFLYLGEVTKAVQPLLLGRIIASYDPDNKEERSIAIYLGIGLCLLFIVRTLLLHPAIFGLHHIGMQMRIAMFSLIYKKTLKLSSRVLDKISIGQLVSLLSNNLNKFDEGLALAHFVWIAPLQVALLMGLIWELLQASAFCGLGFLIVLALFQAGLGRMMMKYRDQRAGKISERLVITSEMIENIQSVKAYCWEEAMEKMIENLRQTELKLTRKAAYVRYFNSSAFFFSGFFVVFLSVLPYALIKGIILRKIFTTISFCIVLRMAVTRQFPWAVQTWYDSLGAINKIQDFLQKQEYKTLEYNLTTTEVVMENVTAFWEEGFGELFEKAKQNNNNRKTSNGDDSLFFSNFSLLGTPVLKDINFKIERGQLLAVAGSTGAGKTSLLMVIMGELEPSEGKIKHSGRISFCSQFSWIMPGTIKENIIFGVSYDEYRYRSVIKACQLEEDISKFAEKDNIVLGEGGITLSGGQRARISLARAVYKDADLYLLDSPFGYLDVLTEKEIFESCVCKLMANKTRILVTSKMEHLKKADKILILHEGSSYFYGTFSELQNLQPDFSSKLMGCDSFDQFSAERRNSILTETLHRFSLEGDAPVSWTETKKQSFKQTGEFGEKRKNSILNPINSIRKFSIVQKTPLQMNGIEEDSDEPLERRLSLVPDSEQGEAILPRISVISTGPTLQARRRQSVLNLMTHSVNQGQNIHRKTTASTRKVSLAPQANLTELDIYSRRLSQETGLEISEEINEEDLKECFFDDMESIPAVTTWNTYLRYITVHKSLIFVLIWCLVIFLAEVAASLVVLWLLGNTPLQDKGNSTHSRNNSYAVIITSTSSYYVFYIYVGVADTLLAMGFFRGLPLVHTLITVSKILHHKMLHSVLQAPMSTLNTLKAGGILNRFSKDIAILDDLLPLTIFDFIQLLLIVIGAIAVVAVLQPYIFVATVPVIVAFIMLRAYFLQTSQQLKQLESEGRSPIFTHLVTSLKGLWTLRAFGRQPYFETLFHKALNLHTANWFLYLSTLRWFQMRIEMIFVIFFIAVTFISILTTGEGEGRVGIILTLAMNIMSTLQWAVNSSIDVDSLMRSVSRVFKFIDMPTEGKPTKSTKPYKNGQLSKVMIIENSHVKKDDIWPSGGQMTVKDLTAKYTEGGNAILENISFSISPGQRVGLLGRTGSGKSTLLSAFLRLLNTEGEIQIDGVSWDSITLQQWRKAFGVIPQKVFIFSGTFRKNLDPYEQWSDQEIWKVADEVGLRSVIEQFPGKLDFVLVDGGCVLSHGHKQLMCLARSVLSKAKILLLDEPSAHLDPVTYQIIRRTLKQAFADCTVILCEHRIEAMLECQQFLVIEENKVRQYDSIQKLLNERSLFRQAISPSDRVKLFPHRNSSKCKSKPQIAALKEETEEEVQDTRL

The first experiment concerns the target T1, CFTR (Homo sapiens, UniProt P13569).
T1 construct: results in the phosphorylation and opening of CFTR anion channels
Briefly: T84 assay (FLIPR membrane potential, forskolin/IBMX-stimulated CFTR channel activity). In kind it is cell-based. The conditions noted are these: average of at least 2 runs unless annotated n = 1. As to the method: (§1) For example, Human colonic T84 cells can be acquired from the European Collection of Cell Cultures (ECACC) and grown in standard culture conditions as described by the supplier. On the day before assay 25,000 T84 cells per well are plated into standard black walled, clear bottom 384-well assay plates in standard growth medium consisting of DMEM:F12 with 10% FBS and incubated overnight. On the day of the assay the plates are washed using a standard assay buffer (HBSS with 10 mM Hepes) and incubated for 15 minutes in serum free cell culture medium before the addition of a commercially available membrane potential sensitive fluorescent dye (FLIPR Red membrane potential dye, Molecular Devices Corporation). T84 cells are incubated with the FLIPR Red membrane potential dye for 45 minutes in the presence and absence of test compound before being transferred to a commercially available fluorescence imaging plate reader (FLIPR384, Molecular Devices Corporation). Fluorescence levels are monitored continuously every second for 150 seconds; after an initial 10 second baseline, CFTR channel activity is stimulated through the addition of 10 μM forskolin in the presence of 100 μM of the phosphodiesterase inhibitor iso-butyl-methylxanthine (IBMX). Addition of the forskolin leads to the activation of intracellular adenylyl cylase 1, elevating cAMP levels and results in the phosphorylation and opening of CFTR anion channels. CFTR channel opening causes chloride ion efflux and subsequent depolarization of the cells, which is measured by an increase in fluorescence. CFTR inhibitor compounds prevent cell depolarization and the associated increase in fluorescence.
as §1, with “Human colonic” for “For example, Human colonic”, “T84 cells are acquired from” for “T84 cells can be acquired from”, “(ECACC) and are grown in” for “(ECACC) and grown in”
Unless otherwise indicated, the IC50 values are reported as an average of at least 2 runs. Where only 1 run is used, this is indicated by the annotation “n=1.”
Turning to `OCCN(Cc1ccccc1)c1ccc(-c2cc(Cl)c(O)c(Cl)c2)nn1` [Compound 98, 4-(6-(benzyl(2-hydroxyethyl)amino)pyridazin-3-yl)-2,6-dichlorophenol], the IC50 – broadly, the concentration that gives 50% inhibition – was found to be 0.63 µM.
Take `CCN(Cc1ccccc1)c1ccc(-c2cc(Cl)c(O)c(Cl)c2)nn1` [Compound 115, 4-(6-(benzyl(ethyl)amino)pyridazin-3-yl)-2,6-dichlorophenol]: the concentration for half-maximal inhibition (IC50) worked out at 0.01 µM.
Consider `CCCN(Cc1ccccc1)c1ccc(-c2cc(Cl)c(O)c(Cl)c2)nn1` [Compound 126, 4-(6-(benzyl(propyl)amino)pyridazin-3-yl)-2,6-dichlorophenol], for which the IC50 was 0.02 µM.
For the compound `CCN(Cc1cccc(F)c1)c1ccc(-c2cc(Cl)c(O)c(Cl)c2)nn1` [Compound 127, 2,6-dichloro-4-(6-(ethyl(3-fluorobenzyl)amino)pyridazin-3-yl)phenol], half-maximal inhibition (IC50) required 0.03 µM.
As to `CCN(Cc1ccc(OCc2ccccc2)cc1)c1ccc(-c2cc(Cl)c(O)c(Cl)c2)nn1` [Compound 128, 4-(6-((4-(benzyloxy)benzyl)(ethyl)amino)pyridazin-3-yl)-2,6-dichlorophenol], the 50% inhibitory concentration (IC50) came to 0.37 µM.
On to `CCOc1ccc(CN(CC)c2ccc(-c3cc(Cl)c(O)c(Cl)c3)nn2)cc1OC` [Compound 129, 2,6-dichloro-4-(6-((4-ethoxy-3-methoxybenzyl)(ethyl)amino)pyridazin-3-yl)phenol], for which the IC50 was 1.16 µM.
`OCCN(Cc1cccc(OCc2ccccc2Cl)c1)c1ccc(-c2cc(Cl)c(O)c(Cl)c2)nn1` [Compound 130, 2,6-dichloro-4-(6-((3-(2-chlorobenzyloxy)benzyl)(2-hydroxyethyl)amino)pyridazin-3-yl)phenol] had a concentration for half-maximal inhibition (IC50) of 2.27 µM.
Still for that read-out and setting: to `CCN(Cc1ccc(OC)c(F)c1)c1ccc(-c2cc(Cl)c(O)c(Cl)c2)nn1` [Compound 131, 2,6-dichloro-4-(6-(ethyl(3-fluoro-4-methoxybenzyl)amino)pyridazin-3-yl)phenol] belongs 1.46 µM.
`CN(Cc1ccc2ncccc2c1)c1ccc(-c2cc(Cl)c(O)c(Cl)c2)nn1` [Compound 132, 2,6-dichloro-4-(6-(methyl(quinolin-6-ylmethyl)amino)pyridazin-3-yl)phenol] yielded an IC50 of 6.69 µM.
On the same count and under the same terms, the value for `Oc1c(Cl)cc(-c2ccc(N(Cc3ccccc3)Cc3ccccc3)nn2)cc1Cl` [Compound 133, 2,6-dichloro-4-(6-(dibenzylamino)pyridazin-3-yl)phenol] was 0.38 µM; that for `COc1ccc(CN(CCO)c2ccc(-c3cc(Cl)c(O)c(Cl)c3)nn2)cc1OC` [Compound 134, 2,6-dichloro-4-(6-((3,4-dimethoxybenzyl)(2-hydroxyethyl)amino)pyridazin-3-yl)phenol] was 6.9 µM; that for `Oc1c(Cl)cc(-c2ccc(N3CCN(c4cccc(F)c4)CC3)nn2)cc1Cl` [Compound 135, 2,6-dichloro-4-(6-(4-(3-fluorophenyl)piperazin-1-yl)pyridazin-3-yl)phenol] was 19.6 µM.
On the same count and under the same terms, to `Oc1c(Cl)cc(-c2ccc(N3CCC(Cc4ccccc4)CC3)nn2)cc1Cl` [Compound 136, 4-(6-(4-benzylpiperidin-1-yl)pyridazin-3-yl)-2,6-dichlorophenol] belongs 24.9 µM.
Compound `Oc1c(Cl)cc(-c2ccc(NCc3ccc(Cl)c(Cl)c3)nn2)cc1Cl` [Compound 137, 2,6-dichloro-4-(6-(3,4-dichlorobenzylamino)pyridazin-3-yl)phenol] displayed an IC50 of 6 µM.
On to `Oc1c(Cl)cc(-c2ccc(NCc3cc(F)cc(C(F)(F)F)c3)nn2)cc1Cl` [Compound 138, 2,6-dichloro-4-(6-(3-fluoro-5-(trifluoromethyl)benzylamino)pyridazin-3-yl)phenol], for which it took 9.58 µM to reach half-maximal inhibition (IC50).

The test system of a further experiment is cholera toxin (CTX)-induced net fluid secretion in intestinal loops.
Assay: not given
The settings on record: 4 hours. In kind it is in vivo, mice (CD1 strain).
Consider `OCCN(Cc1ccccc1)c1ccc(-c2cc(Cl)c(O)c(Cl)c2)nn1` [Compound 98, 4-(6-(benzyl(2-hydroxyethyl)amino)pyridazin-3-yl)-2,6-dichlorophenol], for which the “closed loop % inhibition @ 100 μg” value worked out at 67.0%.
With `CCN(Cc1ccccc1)c1ccc(-c2cc(Cl)c(O)c(Cl)c2)nn1` [Compound 115, 4-(6-(benzyl(ethyl)amino)pyridazin-3-yl)-2,6-dichlorophenol], the “closed loop % inhibition @ 100 μg” value was determined as 79.4%.
